Each structure is given as a SMILES string.

The first assay addresses Escherichia coli DNA gyrase A/B tetramer (Escherichia coli (strain K12), UniProt P0AES4+P0AES6). In words: DNA gyrase supercoiling activity fluorescence polarisation assay. The format is biochemical.
Conditions: not given
The method, then:
DNA Gyrase Supercoiling Activity Fluorescence Polarisation Assay
The supercoiling reactions may be quenched by the addition of 10 microliters/well of 40 nM oligodeoxynucleotide probe in 3× triplex-forming buffer consisting of 150 mM NaCl, and 150 mM sodium acetate at pH 3.5. The oligodeoxynucleotide probe may be 5′-BODIPY-FL-labeled […]. After 60 minutes, the fluorescence anisotropy of the BODIPY-FL may be measured in a Tecan Ultra plate reader, using 485 nm excitation and 535 nm emission filters equipped with polarizers. The IC50 may be determined by nonlinear regression using two control reactions. The first contains no test compound but 0.8% DMSO (100% activity) while the second control reaction contains 5 μM Ciprofloxacin and 0.8% DMSO (0% activity).
In general terms: In fluorescence polarisation assays a small probe gives low polarisation when free and higher when bound to something large.
What is called IC50 is the point on the concentration scale where inhibition reaches its midpoint. In the case of `C[C@@H]1CN2c3c(cc4c(-n5cncn5)noc4c3F)CC3(C(=O)NC(=O)NC3=O)[C@H]2[C@H](C)O1` (racemic) [Example 53, (2R,4S,4 aS)-rel-11-fluoro-2,4-dimethyl-8-(1H-1,2,4-triazol-1-yl)-1,2,4,4a-tetrahydro-2′H,6H-spiro[1,4-oxazino[4,3-a][1,2]oxazolo[4,5-g]quinoline-5,5′-pyrimidine]-2′,4′,6′(1′H,3′H)-trione], the concentration for half-maximal inhibition (IC50) was determined as 2800 nM.

The assay is the same for the next values; noted with them: 5 nM enzyme, relaxed plasmid, 0.3 mM ATP, ambient temperature; read-out: E. coli DNA gyrase supercoiling IC50.
On to `C[C@@H]1CN2c3c(cc4c(NCc5ccccc5)noc4c3F)CC3(C(=O)NC(=O)NC3=O)[C@H]2[C@H](C)O1` (racemic) [Example 9, (2R,4S,4 aS)-rel-8-(benzylamino)-11-fluoro-2,4-dimethyl-1,2,4,4a-tetrahydro-2′H,6H-spiro[1,4-oxazino[4,3-a][1,2]oxazolo[4,5-g]quinoline-5,5′-pyrimidine]-2′,4′,6′(1′H,3′H)-trione], for which the 50% inhibitory concentration (IC50) came to 1700 nM.

Regarding `C[C@@H]1CN2c3c(cc4c(NCc5ccccn5)noc4c3F)CC3(C(=O)NC(=O)NC3=O)[C@H]2[C@H](C)O1` (racemic) [Example 14, (2R,4 S,4aS)-rel-11-fluoro-2,4-dimethyl-8-[(pyridin-2-ylmethyl)amino]-1,2,4,4a-tetrahydro-2′H,6H-spiro[1,4-oxazino[4,3-a][1,2]oxazolo[4,5-g]quinoline-5,5′-pyrimidine]-2′,4′,6′(1′H,3′H)-trione], the IC50 came to 2000 nM. The same measure, in the same setting: under `C[C@@H]1CN2c3c(cc4c(-n5cc(I)cn5)noc4c3F)CC3(C(=O)NC(=O)NC3=O)[C@H]2[C@H](C)O1` (racemic) [Example 36, (2R,4S,4 aS)-rel-11-fluoro-8-(4-iodo-1H-pyrazol-1-yl)-2,4-dimethyl-1,2,4,4a-tetrahydro-2′H,6H-spiro[1,4-oxazino[4,3-a][1,2]oxazolo[4,5-g]quinoline-5,5′-pyrimidine]-2′,4′,6′(1′H,3′H)-trione] stands 2100 nM; under `C[C@@H]1CN2c3c(cc4c(C5CC5)noc4c3Cl)CC3(C(=O)NC(=O)NC3=O)[C@H]2[C@H](C)O1` (racemic) [Example 39, (2R,4S,4 aS)-rel-11-chloro-8-cyclopropyl-2,4-dimethyl-1,2,4,4a-tetrahydro-2′H,6H-spiro[1,4-oxazino[4,3-a][1,2]oxazolo[4,5-g]quinoline-5,5′-pyrimidine]-2′,4′,6′(1′H,3′H)-trione], 600 nM. Still for that read-out and setting: as for `C[C@@H]1CN2c3c(cc4c(-c5ncccn5)noc4c3Cl)CC3(C(=O)NC(=O)NC3=O)[C@H]2[C@H](C)O1` (racemic) [Example 42, (2R,4S,4 aS)-rel-11-chloro-2,4-dimethyl-8-(pyrimidin-2-yl)-1,2,4,4a-tetrahydro-2′H,6H-spiro[1,4-oxazino[4,3-a][1,2]oxazolo[4,5-g]quinoline-5,5′-pyrimidine]-2′,4′,6′(1′H,3′H)-trione], the figure is 1200 nM; as for `C[C@@H]1CN2c3c(cc4c(-c5cncnc5)noc4c3Cl)CC3(C(=O)NC(=O)NC3=O)[C@H]2[C@H](C)O1` (racemic) [Example 44, (2R,4S,4 aS)-rel-11-chloro-2,4-dimethyl-8-(pyrimidin-5-yl)-1,2,4,4a-tetrahydro-2′H,6H-spiro[1,4-oxazino[4,3-a][1,2]oxazolo[4,5-g]quinoline-5,5′-pyrimidine]-2′,4′,6′(1′H,3′H)-trione], 1000 nM. The same measure, in the same setting: under `C[C@@H]1CN2c3c(cc4c(-n5nccn5)noc4c3F)CC3(C(=O)NC(=O)NC3=O)[C@H]2[C@H](C)O1` (racemic) [Example 56, (2R,4S,4 aS)-rel-11-fluoro-2,4-dimethyl-8-(2H-1,2,3-triazol-2-yl)-1,2,4,4a-tetrahydro-2′H,6H-spiro[1,4-oxazino[4,3-a][1,2]oxazolo[4,5-g]quinoline-5,5′-pyrimidine]-2′,4′,6′(1′H,3′H)-trione] stands 700 nM.

These data come from patent US9040528B2, “Chemical compounds 542” (AstraZeneca AB, priority 2008, dated 2015).
